The subject of one experiment is cancer cell. As to the kind of experiment: Cell viability assay (resazurin). In kind it is cell-based. Particulars: 72 h; 3 days with compound, resazurin fluorescence; cell line not named. The method, boiled down:
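Cells in DMEM GlutaMAX or line-appropriate medium are exposed to compound for 3 days at 37 °C, 5% CO2. Viability is read as resazurin fluorescence (Ex544/Em590) after 2 h incubation. In the 384-well format, cells are seeded onto 11 pre-dispensed concentrations (final DMSO <1%) and read after 3 h resazurin.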
Background: The colour change of resazurin is a common sign of viable cells or microbes.

The next experiment addresses MTH1 (Homo sapiens, UniProt P36639). As to the kind of experiment: MTH1 enzymatic assay and IC50 value determination (malachite green, 96- and 384-well format). In kind it is biochemical. Particulars: hydrolysis of dGTP (100 μM), MTH1 6 nM, pyrophosphatase-coupled malachite green, 15 minutes at 22° C. The method, boiled down:
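MTH1 (6 nM) hydrolysed dGTP (100 μM) for 15 min at 22 °C in Tris-acetate buffer with Mg2+, DTT, Tween 20 and excess pyrophosphatase, 1% DMSO. Pi detected with malachite green at 630 nm. IC50 from nonlinear 4-parameter fit of 11–12-point dilution series.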

In the case of `Cc1c(Cl)cccc1-c1cc(NCCNc2cccc(S(C)(=O)=O)c2)nc(N)n1` [Example 105, 6-(3-chloro-2-methyl-phenyl)-N4-[2-(3-methylsulfonylanilino)ethyl]pyrimidine-2,4-diamine], the IC50 was less than 500 nM in the experiment on cancer cell and less than 200 nM against MTH1.
`Cc1cccc(-c2cc(NCCNc3ccc(S(N)(=O)=O)cc3F)nc(N)n2)c1C` [Example 42, 4-[(2-{[2-amino-6-(2,3-dimethylphenyl)pyrimidin-4-yl]amino}ethyl)amino]-3-fluorobenzene-1-sulfonamide]: the values for the IC50 with cancer cell and on MTH1 were less than 500 nM and less than 200 nM, respectively.
The like results for `Cc1c(Cl)cccc1-c1cc(NCCc2ccc(C(=O)NC(C)CO)cc2)nc(N)n1` (stereo not shown) [Example 194, 4-(2-{[2-amino-6-(3-chloro-2-methylphenyl)pyrimidin-4-yl]amino}ethyl)-N-(1-hydroxypropan-2-yl)benzamide] were, in that order, less than 500 nM and less than 200 nM.
In the case of `Cc1c(Cl)cccc1-c1cc(NCCc2cccc(NC(=O)N3CCCC3)c2)nc(N)n1` [Example 152, N-[3-[2-[[2-amino-6-(3-chloro-2-methyl-phenyl)pyrimidin-4-yl]amino]ethyl]phenyl]pyrrolidine-1-carboxamide], the IC50 in the experiment on cancer cell is less than 500 nM; at MTH1, less than 200 nM.
On to `Cc1c(Cl)cccc1-c1cc(NCCNc2ccc(S(C)(=O)=O)nc2)nc(N)n1` [Example 188, 6-(3-chloro-2-methyl-phenyl)-N4-[2-[(6-methylsulfonyl-3-pyridyl)amino]ethyl]pyrimidine-2,4-diamine], for which the concentration for half-maximal inhibition (IC50) in the experiment on cancer cell is less than 500 nM; at MTH1 it was less than 200 nM.
The like results for `Cc1c(Cl)cccc1-c1cc(NCCc2cccc(NC(=O)OCC(C)C)c2)nc(N)n1` [Example 154, isobutyl N-[3-[2-[[2-amino-6-(3-chloro-2-methyl-phenyl)pyrimidin-4-yl]amino]ethyl]phenyl]carbamate] were, in that order, less than 500 nM and less than 200 nM.
Take `Cc1c(Cl)cccc1-c1cc(NCCOc2ccc(C(N)=O)cn2)nc(N)n1` [Example 55, 6-(2-{[2-amino-6-(3-chloro-2-methylphenyl)pyrimidin-4-yl]amino}ethoxy)pyridine-3-carboxamide]: the IC50 in the experiment with cancer cell was less than 500 nM; against MTH1 it was less than 200 nM.
On to `Cc1c(Cl)cccc1-c1cc(NCCc2cccc(S(C)(=O)=O)c2)nc(N)n1` [Example 52, 6-(3-chloro-2-methylphenyl)-4-N-[2-(3-methanesulfonylphenyl)ethyl]pyrimidine-2,4-diamine], for which the results for the IC50 in the experiment with cancer cell and on MTH1 were less than 500 nM and less than 200 nM, respectively.
Turning to `CCS(=O)(=O)Nc1ccc(CCNc2cc(-c3cccc(Cl)c3C)nc(N)n2)cc1` [Example 64, N-[4-(2-{[2-amino-6-(3-chloro-2-methylphenyl)pyrimidin-4-yl]amino}ethyl)phenyl]ethane-1-sulfonamide], the IC50 with cancer cell is less than 500 nM; at MTH1 it was less than 200 nM.
As for `CNS(=O)(=O)c1ccc(NCCNc2cc(-c3cccc(C)c3C)nc(N)n2)nc1` [Example 3, 6-[(2-{[2-amino-6-(2,3-dimethylphenyl)pyrimidin-4-yl]amino}ethyl)amino]-N-methylpyridine-3-sulfonamide], the IC50 in the experiment with cancer cell is less than 500 nM; at MTH1 it was less than 200 nM.
The like results for `COc1ccc(NCCNc2cc(-c3cccc(C)c3C)nc(N)n2)cc1S(N)(=O)=O` [Example 32, 5-[(2-{[2-amino-6-(2,3-dimethylphenyl)pyrimidin-4-yl]amino}ethyl)amino]-2-methoxybenzene-1-sulfonamide] were, in that order, less than 500 nM and less than 200 nM.
`CC(=O)Nc1cccc(CCNc2cc(-c3cccc(Cl)c3C)nc(N)n2)c1` [Example 46, N-[3-(2-{[2-amino-6-(3-chloro-2-methylphenyl)pyrimidin-4-yl]amino}ethyl)phenyl]acetamide]: the IC50 with cancer cell was less than 500 nM; against MTH1, less than 200 nM.
For the compound `Cc1c(Cl)cccc1-c1cc(NCCc2ccc(S(C)(=O)=O)cc2)nc(N)n1` [Example 1, 6-(3-chloro-2-methylphenyl)-4-N-[2-(4-methanesulfonylphenyl)ethyl]pyrimidine-2,4-diamine], the IC50 in the experiment on cancer cell was less than 500 nM; against MTH1 it was less than 200 nM.
Taken in the same sequence, the figures for `Cc1c(Cl)cccc1-c1cc(NCCNc2ccc(S(=O)(=O)C(C)C)cc2)nc(N)n1` [Example 160, 6-(3-chloro-2-methyl-phenyl)-N4-[2-(4-isopropylsulfonylanilino)ethyl]pyrimidine-2,4-diamine] were less than 500 nM and less than 200 nM.
On to `CCCOC(=O)c1ccc(CCNc2cc(-c3cccc(Cl)c3C)nc(N)n2)cc1` [Example 184, propyl 4-[2-[[2-amino-6-(3-chloro-2-methyl-phenyl)pyrimidin-4-yl]amino]ethyl]benzoate], for which the IC50 with cancer cell is less than 500 nM; at MTH1, less than 200 nM.
Consider `CCOC(=O)c1ccc(CCNc2cc(-c3cccc(Cl)c3C)nc(N)n2)cc1` [Example 183, ethyl 4-[2-[[2-amino-6-(3-chloro-2-methyl-phenyl)pyrimidin-4-yl]amino]ethyl]benzoate], for which the figures for the IC50 in the experiment on cancer cell and on MTH1 were less than 500 nM and less than 200 nM, respectively.
Taken in the same sequence, the figures for `Cc1c(Cl)cccc1-c1cc(NCCc2ccc(S(=O)(=O)C(C)C)cc2)nc(N)n1` [Example 169, 6-(3-chloro-2-methyl-phenyl)-N4-[2-(4-isopropylsulfonylphenyl)ethyl]pyrimidine-2,4-diamine] were less than 500 nM and less than 200 nM.
Take `C=CCNC(=O)Nc1ccc(CCNc2cc(-c3cccc(Cl)c3C)nc(N)n2)cc1` [Example 114, 1-allyl-3-[4-[2-[[2-amino-6-(3-chloro-2-methyl-phenyl)pyrimidin-4-yl]amino]ethyl]phenyl]urea]: the IC50 in the experiment with cancer cell was less than 500 nM; on MTH1, less than 200 nM.
For the compound `Cc1c(F)ccc(-c2cc(NCCc3ccc(C(N)=O)cc3)nc(N)n2)c1C` [Example 77, 4-(2-{[2-amino-6-(4-fluoro-2,3-dimethylphenyl)pyrimidin-4-yl]amino}ethyl)benzamide], the figures for the IC50 in the experiment with cancer cell and on MTH1 were less than 500 nM and less than 200 nM, respectively.
For the compound `Cc1nc2ccc(NCCNc3cc(-c4cccc(C)c4C)nc(N)n3)cc2s1` [Example 36, 6-(2,3-dimethylphenyl)-4-N-{2-[(2-methyl-1,3-benzothiazol-6-yl)amino]ethyl}pyrimidine-2,4-diamine], the IC50 with cancer cell is less than 500 nM; at MTH1, less than 200 nM.
Taken in the same sequence, the figures for `Cc1c(Cl)cccc1-c1cc(NCCc2ccc(C(=O)N3CCN(C)CC3)cc2)nc(N)n1` [Example 195, 6-(3-chloro-2-methylphenyl)-4-N-{2-[4-(4-methylpiperazine-1-carbonyl)phenyl]ethyl}pyrimidine-2,4-diamine] were less than 500 nM and less than 200 nM.
Turning to `Cc1cccc(-c2cc(NCCCNc3ccc(S(N)(=O)=O)cn3)nc(N)n2)c1C` [Example 2, 6-[(3-{[2-amino-6-(2,3-dimethylphenyl)pyrimidin-4-yl]amino}propyl)amino]pyridine-3-sulfonamide], the figures for the IC50 with cancer cell and on MTH1 were less than 500 nM and less than 200 nM, respectively.
For the compound `Cc1c(Cl)cccc1-c1cc(NCCOc2nccc3occc23)nc(N)n1` [Example 200, 6-(3-chloro-2-methylphenyl)-N4-(2-{furo[3,2-c]pyridin-4-yloxy}ethyl)pyrimidine-2,4-diamine], the IC50 in the experiment with cancer cell was less than 500 nM; on MTH1 it was less than 200 nM.

One may read the IC50 as the concentration at which inhibition is half-maximal.

The values are drawn from patent publication US10179790B2 (THOMAS HELLEDAYS STIFTELSE FOR MEDICINSK FORSKNING, priority 2014, dated 2019).
